Values of other authors as cited in Sander's compilation of Henry's law constants.
“And” between values parts separate entries of the source, which are not always exact repeats. Equal entries are not always repeated. Blank lines part the entries; values can stand above or below the compound they belong to.

Experiment: Henry solubility constant Hcp at 298.15 K (mol/(m3 Pa))
Conditions: cited value
[1] = reference: Fogg and Sangster (2003)
[2] = reference: Barcelo and Hennion (1997)
[3] = reference: Barr and Newsham (1987)
[4] = reference: Burkholder et al. (2015)
[5] = reference: Burkholder et al. (2019)
[6] = reference: Sander et al. (2006)
[7] = reference: Sander et al. (2011)

Compound: Cc1ccc2ccccc2c1 [2-methylnaphthalene]
Henry solubility constant Hcp (reference: Brockbank (2013)): 0.02
Henry solubility constant Hcp [1]: 0.018
Henry solubility constant Hcp (reference: Mackay et al. (1992b)): 0.02

Henry solubility constant Hcp (reference: Brockbank (2013)): 0.081
Compound: C1CCOCC1 [tetrahydropyran]

Compound: CNC(=O)ON=C(C)SC [methomyl]
Henry solubility constant Hcp [2]: 150

Henry solubility constant Hcp (reference: Brockbank (2013)): 0.29
Compound: COC(=O)c1ccccc1 [methyl benzoate]

Compound: CCNc1nc(NC(C)(C)C)nc(SC)n1 [terbutryn]
Henry solubility constant Hcp [2]: 7.6

Compound: ClCCCCCCl [1,5-dichloropentane]
Henry solubility constant Hcp (reference: Brockbank (2013)): 0.01

Compound: Oc1ccc(Cl)cc1Cl [2,4-dichlorophenol]
Henry solubility constant Hcp (reference: Goldstein (1982)): 1.5

Compound: CCOP(=S)(OCC)Oc1nc(Cl)c(Cl)cc1Cl [chlorpyrifos]
Henry solubility constant Hcp [2]: 0.0056
Henry solubility constant Hcp (reference: HSDB (2015)): 3.4
Henry solubility constant Hcp (reference: Muir et al. (2004)): 1.8 and 2.1

Henry solubility constant Hcp (reference: Brockbank (2013)): 12
Henry solubility constant Hcp (reference: Howard (1989)): 11
Compound: Cc1cccc(O)c1 [1-hydroxy-3-methylbenzene]

Henry solubility constant Hcp (reference: Brockbank (2013)): 5.1e-05
Henry solubility constant Hcp (reference: Goldstein (1982)): 6.2e-05
Compound: C1CCCCC1 [cyclohexane]

Compound: CN(C)C(=S)SSC(=S)N(C)C [thiram]
Henry solubility constant Hcp (reference: MacBean (2012b)): 30

Compound: ClCC(Cl)Cl [1,1,2-trichloroethane]
Henry solubility constant Hcp [3]: 0.011
Henry solubility constant Hcp (reference: Brockbank (2013)): 0.011
Henry solubility constant Hcp [4]: 0.011
Henry solubility constant Hcp [5]: 0.011
Henry solubility constant Hcp [1]: 0.012
Henry solubility constant Hcp (reference: Goldstein (1982)): 0.012

Compound: ClC(Cl)C(Cl)(Cl)Cl [pentachloroethane]
Henry solubility constant Hcp (reference: Brockbank (2013)): 0.0042
Henry solubility constant Hcp [5]: 0.0041

Henry solubility constant Hcp (reference: Brockbank (2013)): 2.1e-05
Compound: CCC1CCCCC1 [ethylcyclohexane]

Compound: c1ccc2cc3c(cc2c1)-c1cccc2cccc-3c12 [benzo[k]fluoranthene]
Henry solubility constant Hcp (reference: Goldstein (1982)): 0.0096

Compound: CCC[N+](=O)[O-] [1-nitropropane]
Henry solubility constant Hcp (reference: Brockbank (2013)): 0.14
Henry solubility constant Hcp [4]: 0.13
Henry solubility constant Hcp [5]: 0.13
Henry solubility constant Hcp [6]: 0.13
Henry solubility constant Hcp [7]: 0.13

Compound: Cc1cccc(N)c1 [3-methylbenzenamine]
Henry solubility constant Hcp (reference: Brockbank (2013)): 5.6

Compound: CCCCCCI [1-iodohexane]
Henry solubility constant Hcp (reference: Brockbank (2013)): 0.00034

Compound: O=C(O)C(Cl)(Cl)Cl [trichloroethanoic acid]
Henry solubility constant Hcp [4]: 730
Henry solubility constant Hcp [5]: 730
Henry solubility constant Hcp [7]: 730

Compound: OCC(F)F [2,2-difluoroethanol]
Henry solubility constant Hcp [4]: 0.93
Henry solubility constant Hcp [5]: 0.93

Compound: ClC(Cl)=C(Cl)Cl [tetrachloroethene]
Henry solubility constant Hcp (reference: Brockbank (2013)): 0.00056
Henry solubility constant Hcp [4]: 0.00055
Henry solubility constant Hcp [5]: 0.00055
Henry solubility constant Hcp (reference: Dilling (1977)): 0.00081
Henry solubility constant Hcp (reference: Dilling et al. (1975)): 0.00081
Henry solubility constant Hcp [1]: 0.0006
Henry solubility constant Hcp (reference: Goldstein (1982)): 0.00036

Compound: c1ccc2c(c1)cc1ccc3cccc4ccc2c1c34 [benzo[a]pyrene]
Henry solubility constant Hcp (reference: Brockbank (2013)): 4.5
Henry solubility constant Hcp (reference: Goldstein (1982)): 0.0016

Henry solubility constant Hcp (reference: Brockbank (2013)): 5.6e-06
Compound: CCC(C)(C)CC [3,3-dimethylpentane]

Henry solubility constant Hcp (reference: Goldstein (1982)): 1.7
Compound: CC1=CC(=O)CC(C)(C)C1 [3,5,5-trimethyl-2-cyclohexen-1-one]

Henry solubility constant Hcp (reference: Brockbank (2013)): 0.014
Compound: CC(C)(C)OC=O [(1,1-dimethylethyl)-methanoate]

Compound: CCCCC(O)(Cn1cncn1)c1ccc(Cl)cc1Cl (configuration not stated) [hexaconazole]
Henry solubility constant Hcp [2]: 28

Compound: CCOC=O [ethyl methanoate]
Henry solubility constant Hcp (reference: Brockbank (2013)): 0.033
Henry solubility constant Hcp [4]: 0.034
Henry solubility constant Hcp [5]: 0.034
Henry solubility constant Hcp [7]: 0.034

Compound: ClC(Cl)(Cl)C(Cl)(Cl)Cl [hexachloroethane]
Henry solubility constant Hcp (reference: Brockbank (2013)): 0.0028
Henry solubility constant Hcp [4]: 0.0026
Henry solubility constant Hcp [5]: 0.0027
Henry solubility constant Hcp (reference: Goldstein (1982)): 0.001

Henry solubility constant Hcp (reference: Abraham (1984)): 0.35
Compound: CCCCCCCCCCCCCCCCO [1-hexadecanol]

Henry solubility constant Hcp (reference: Brockbank (2013)): 0.014
Compound: CCOC(=O)CC(C)C [ethyl 3-methylbutanoate]

Compound: CCC(C)(C)O [2-methyl-2-butanol]
Henry solubility constant Hcp (reference: Brockbank (2013)): 0.65

Compound: Nc1ccc(Cl)cc1 [1-amino-4-chlorobenzene]
Henry solubility constant Hcp (reference: Howard (1989)): 0.92

Henry solubility constant Hcp (reference: Brockbank (2013)): 8e-06
Compound: CC(C)C(C)C [2,3-dimethylbutane]

Compound: CCOP(=O)(OCC)OC(=CCl)c1ccc(Cl)cc1Cl [chlorfenvinphos]
Henry solubility constant Hcp [2]: 35

Compound: CC(C1CC1)C(O)(Cn1cncn1)c1ccc(Cl)cc1 (configuration not stated) [cyproconazole]
Henry solubility constant Hcp [2]: 130

Compound: OCl [hypochlorous acid]
Henry solubility constant Hcp [4]: 6.5
Henry solubility constant Hcp [5]: 6.5
Henry solubility constant Hcp (reference: Huthwelker et al. (1995)): 6.5
Henry solubility constant Hcp [6]: 6.5
Henry solubility constant Hcp [7]: 6.5

Compound: CC(C)N(C(=O)CCl)c1ccccc1 [propachlor]
Henry solubility constant Hcp [2]: 0.9

Compound: [H] [hydrogen atom]
Henry solubility constant Hcp [4]: 2.6e-06
Henry solubility constant Hcp [5]: 2.6e-06
Henry solubility constant Hcp [6]: 2.6e-06
Henry solubility constant Hcp [7]: 2.6e-06

Henry solubility constant Hcp (reference: Brockbank (2013)): 0.05
Compound: CCCCCCC(C)=O [2-octanone]

Compound: CC(C)OC(=O)Nc1cccc(Cl)c1 [chlorpropham]
Henry solubility constant Hcp [2]: 47

Compound: [Br][Hg][Br] [mercury dibromide]
Henry solubility constant Hcp (reference: Kanefke (2008)): 960

Henry solubility constant Hcp (reference: Brockbank (2013)): 0.032
Compound: CCCCCCCC(C)=O [2-nonanone]

Compound: ClCc1ccccc1 [(chloromethyl)-benzene]
Henry solubility constant Hcp (reference: Brockbank (2013)): 0.022

Henry solubility constant Hcp (reference: Brockbank (2013)): 0.029
Compound: C=C(C)C(=O)OC [methyl methacrylate]

Compound: c1ccc(-c2ccccc2)cc1 [biphenyl]
Henry solubility constant Hcp (reference: Brockbank (2013)): 0.036

Compound: O=C(Nc1ccccc1)Nc1ccnc(Cl)c1 [forchlorfenuron]
Henry solubility constant Hcp (reference: MacBean (2012b)): 3.5e+06

Compound: CCCCCl [1-chlorobutane]
Henry solubility constant Hcp (reference: Brockbank (2013)): 0.00056

Henry solubility constant Hcp (reference: Brockbank (2013)): 0.016
Compound: CC(C)COC=O [(2-methylpropyl)-methanoate]

Compound: C=CCO [2-propen-1-ol]
Henry solubility constant Hcp (reference: Goldstein (1982)): 4.3
Henry solubility constant Hcp (reference: Pierotti et al. (1959)): 2

Henry solubility constant Hcp (reference: Brockbank (2013)): 0.034
Compound: CCCCCCC=O [heptanal]

Compound: CC(Cl)(Cl)Cl [1,1,1-trichloroethane]
Henry solubility constant Hcp [3]: 0.00058
Henry solubility constant Hcp (reference: Brockbank (2013)): 0.00058
Henry solubility constant Hcp [4]: 0.0006
Henry solubility constant Hcp [5]: 0.0006
Henry solubility constant Hcp [1]: 0.00062
Henry solubility constant Hcp (reference: Goldstein (1982)): 0.0022

Compound: CC1(C(=O)Nc2ccc(O)c(Cl)c2Cl)CCCCC1 [fenhexamid]
Henry solubility constant Hcp (reference: MacBean (2012b)): 200000

Compound: CBr [bromomethane]
Henry solubility constant Hcp (reference: Brockbank (2013)): 0.0015
Henry solubility constant Hcp [4]: 0.0017
Henry solubility constant Hcp [5]: 0.0015
Henry solubility constant Hcp (reference: Goldstein (1982)): 4.4e-05
Henry solubility constant Hcp [6]: 0.0017
Henry solubility constant Hcp [7]: 0.0017

Henry solubility constant Hcp [2]: 0.018
Compound: CCSC(=O)N(CC(C)C)CC(C)C [butylate]

Henry solubility constant Hcp (reference: Brockbank (2013)): 7.6e-05
Compound: CCCCCCCCCCc1ccccc1 [decylbenzene]

Henry solubility constant Hcp (reference: Brockbank (2013)): 0.33
Henry solubility constant Hcp [1]: 0.17
Henry solubility constant Hcp (reference: Goldstein (1982)): 0.35
Henry solubility constant Hcp (reference: McCarty (1980)): 0.007
Henry solubility constant Hcp (reference: Smith et al. (1981a)): 0.1
Compound: c1ccc2cc3ccccc3cc2c1 [anthracene]

Compound: CC(C)(C)c1cc([N+](=O)[O-])cc([N+](=O)[O-])c1O [dinoterb]
Henry solubility constant Hcp [2]: 1.7

Compound: CCI [iodoethane]
Henry solubility constant Hcp (reference: Brockbank (2013)): 0.0015
Henry solubility constant Hcp [1]: 0.0015

Compound: ClC=CCCl [1,3-dichloropropene]
Henry solubility constant Hcp [2]: 2.4e-05
Henry solubility constant Hcp (reference: Goldstein (1982)): 0.0028
Henry solubility constant Hcp (reference: Horvath and Getzen (1999)): 0.0028

Henry solubility constant Hcp (reference: Brockbank (2013)): 0.14
Compound: CCCCCCCCCCCO [1-undecanol]
